# Patent US20230399287A1, “NOVEL COMPOUNDS” (Sitryx Therapeutics Limited, priority 2020, published 2023)
# Columns and labels:
# hepatocytes [1] = test: Hepatocyte stability assay (mouse); type: in vitro ADME; details: 10 μM compound, 60 min
# In short: (§1)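 Cryopreserved human or mouse hepatocytes (0.5×10^6 cells/mL in Leibovitz buffer) were incubated with 10 μM compound (0.1% DMSO) at 37° C in duplicate, alongside a buffer-only control. Samples taken from 0 to 60 min were analysed by LC-MS/MS. Half-life and Clint (μL min^−1 10^−6 cells) came from the ln % remaining versus time slope.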
# [2] = Hepatocyte stability assay (mouse); type: in vitro ADME; details: mouse, cryopreserved hepatocytes, 10 μM compound, 60 min, read-out: T½
# In short: as §1
# IL-6 = test: THP-1 AlphaLISA IL-6 cytokine assay; type: cell-based; details: for IC50: Homo sapiens, THP-1, differentiated THP-1 cells, LPS 24 hr then Nigericin 1 hour
# In short: (§2)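 THP-1 cells differentiated with PMA for 72 h, pre-incubated with compound for 30 min, primed with LPS for 24 h, then given nigericin for 1 h at 37 °C. IL-1β and IL-6 in supernatants were read by AlphaLISA. % inhibition was set against ±LPS controls and IC50 taken from concentration–response curves.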
# hepatocytes [3] = test: Hepatocyte stability assay (human); type: in vitro ADME; details: 10 μM compound, 60 min
# In short: as §1
# [4] = Hepatocyte stability assay (human); type: in vitro ADME; details: human, cryopreserved hepatocytes, 10 μM compound, 60 min, read-out: T½
# In short: as §1
# IL-1β = test: THP-1 AlphaLISA IL-1β cytokine assay; type: cell-based; details: for IC50: Homo sapiens, THP-1, differentiated THP-1 cells, LPS 24 hr then Nigericin 1 hour
# In short: as §2
# NRF2 = NRF2 +/- GSH activation assay (DiscoverX PathHunter NRF2 translocation kit); type: cell-based; details: for EC50: Homo sapiens, U2OS, U2OS PathHunter cells
# [5] = +GSH, normalised to dimethyl fumarate high control
# [6] = −GSH, normalised to dimethyl fumarate high control
# [7] = THP-1 cells, statement in words
Compound,Clint (hepatocytes [1]) [μL min^−1 10^−6 cells],half-life at 10 μM [2] [h],IC50 (IL-6) [µM],Clint (hepatocytes [3]) [μL min^−1 10^−6 cells],half-life at 10 μM [4] [h],IC50 (IL-1β) [µM],Emax (NRF2; [5]) [%],EC50 (NRF2; +GSH) [µM],EC50 (NRF2; −GSH) [µM],Emax (NRF2; [6]) [%],cytokine-lowering potencies for IL-6 compared to dimethyl itaconate (IL-6; [7]),"cytokine-lowering potencies for IL-1β compared to dimethyl itaconate, dimethyl fumarate and 4-octyl itaconate (IL-1β; [7])","Emax (NRF2; +GSH, data from repeated experiments) [%]","Emax (NRF2; −GSH, data from repeated experiments) [%]"
"C=C(CC(=O)OC1(c2ccc(Cl)cc2)CCC1)C(=O)O [Example 8, 4-(1-(4-chlorophenyl)cyclobutoxy)-2-methylene-4-oxobutanoic acid]",26,1.08,64.5,11,2.07,2.6,0,> 100,> 100,24,–,–,–,–
"C=C(CC(=O)OC1(c2ccc(C(F)(F)F)nn2)CCC1)C(=O)O [Example 62, 2-methylene-4-oxo-4-(1-(6-(trifluoromethyl)pyridazin-3-yl)cyclobutoxy)butanoic acid]",4,7.23,> 31.6,<3,> 7.67,5,4,> 100,> 100,1,–,–,–,–
"C=C(CC(=O)OC1(c2ccc(C(F)(F)F)cc2)CSC1)C(=O)O [Example 40, 2-methylene-4-oxo-4-((3-(4-(trifluoromethyl)phenyl)thietan-3-yl)oxy)butanoic acid]",25,1.48,> 100,12,1.68,0.8,9,> 100,1.7,61,–,–,–,–
"C=C(CC(=O)OC1(c2ccc(C#CC(F)(F)F)cc2)CCC1)C(=O)O [Example 36, 2-methylene-4-oxo-4-(1-(4-(3,3,3-trifluoroprop-1-yn-1-yl)phenyl)cyclobutoxy)butanoic acid]",>460,< 0.05,5.6,12,1.87,> 31.6,90,8.6,9,116,–,–,–,–
"C/C(=C\C(=O)OC1(c2ccc(C(F)(F)F)cc2)CCC1)C(=O)O [Example 21, (E)-2-methyl-4-oxo-4-(1-(4-(trifluoromethyl)phenyl)cyclobutoxy)but-2-enoic acid]",71,0.45,49.7,31,0.917,7.3,4,> 100,> 100,0,–,–,–,–
"C=C(CC(=O)OC1(c2ccc(C(F)(F)F)c(Cl)c2)CCC1)C(=O)O [Example 12, 4-(1-(3-chloro-4-(trifluoromethyl)phenyl)cyclobutoxy)-2-methylene-4-oxobutanoic acid]",42,0.75,82.6,46,0.617,4.5,46,> 100,81.6,66,–,–,–,–
"C=C(CC(=O)OC1(c2ccc(C(F)(F)F)cc2)CCC1)C(=O)O [Example 1, 2-methylene-4-oxo-4-(1-(4-(trifluoromethyl)phenyl)cyclobutoxy)butanoic acid]",13,2.52,62,11,1.93,0.8,10,> 100,> 100,37,improved cytokine-lowering potencies,much improved cytokine-lowering potencies,14,17
"C=C(CC(=O)OCc1ccc(C(F)(F)F)cc1)C(=O)O [Example 13, 2-methylene-4-oxo-4-((4-(trifluoromethyl)benzyl)oxy)butanoic acid]",42,0.617,> 100,<3,> 7.67,5.9,25,> 100,38.7,54,–,–,–,–
"C=C(CC(=O)OC1(c2ccc(-c3ccc(C(F)(F)F)cc3)cc2)CCC1)C(=O)O [Example 26, 2-methylene-4-oxo-4-(1-(4′-(trifluoromethyl)-[1,1′-biphenyl]-4-yl)cyclobutoxy)butanoic acid]",>460,< 0.05,3.7,238,0.1,42,34,> 100,24.1,88,–,–,–,–
"C=C(CC(=O)OC1(c2ccc(SC(F)(F)F)cc2)CCC1)C(=O)O [Example 9, 2-methylene-4-oxo-4-(1-(4-((trifluoromethyl)thio)phenyl)cyclobutoxy)butanoic acid]",44,0.633,> 100,15,1.52,2.8,6,> 100,> 100,14,–,–,–,–
"C=C(CC(=O)OC1(c2ccc(C(F)(F)F)cc2)CCCC1)C(=O)O [Example 7, 2-methylene-4-oxo-4-((1-(4-(trifluoromethyl)phenyl)cyclopentyl)oxy)butanoic acid]",14,1.97,> 100,20,1.1,3.7,0,> 100,> 100,6,–,–,–,–
"C=C(CC(=O)OC1(c2ccc(C(F)(F)F)cc2)CC1)C(=O)O [Example 11, 2-methylene-4-oxo-4-(1-(4-(trifluoromethyl)phenyl)cyclopropoxy)butanoic acid]",24,1.18,> 100,6,3.62,1.4,0,> 100,> 100,11,–,–,–,–
"C=C(CC(=O)OC(C)(C)c1ccc(C(F)(F)F)cc1)C(=O)O [Example 2, 2-methylene-4-oxo-4-((2-(4-(trifluoromethyl)phenyl)propan-2-yl)oxy)butanoic acid]",35,0.583,> 63.1,8,2.83,0.8,0,> 100,> 100,0,–,–,–,–
"C=C(CC(=O)OC1(c2ccc(C(F)(F)F)cn2)CC1)C(=O)O [Example 58, 2-methylene-4-oxo-4-(1-(5-(trifluoromethyl)pyridin-2-yl)cyclopropoxy)butanoic acid]",5,5.45,> 42.2,5,6.2,3.2,0,> 100,> 100,1,–,–,–,–
